Measured values: PubChem BioAssay AID248 (DTP/NCI, 2004)
“And” between values parts separate entries of the source, which are not always exact repeats. Identical values can stand only once. Inconclusive results and toxic doses are left out. Cut-off read from the data, not from the text of the source: active = T/C of 150% or more; inactive = T/C below 125%.

System: L1210 leukemia ip in BDF1 mice, survival T/C
Assay: NCI In Vivo Anticancer Drug Screen. Data for tumor model L1210 Leukemia (intraperitoneal) in B6D2F1 (BDF1) mice
Conditions: endpoint: mean survival time, higher = longer survival
Method in brief: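 Read-out is survival time, reported as the treated-group measurement over the vehicle-control measurement.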

[1] = dose: 100.0 mg/kg/injection, schedule: Q01DX009 (ip), vehicle: Klucel (hydroxypropylcellulose) (HPC)
[2] = dose: 200.0 mg/kg/injection, schedule: Q01DX009 (ip), vehicle: Klucel (hydroxypropylcellulose) (HPC)
[3] = dose: 400.0 mg/kg/injection, schedule: Q01DX009 (ip), vehicle: Klucel (hydroxypropylcellulose) (HPC)
[4] = dose: 100.0 mg/kg/injection, schedule: Q04DX002 (ip), vehicle: Klucel (hydroxypropylcellulose) (HPC)
[5] = dose: 200.0 mg/kg/injection, schedule: Q04DX002 (ip), vehicle: Klucel (hydroxypropylcellulose) (HPC)
[6] = dose: 400.0 mg/kg/injection, schedule: Q04DX002 (ip), vehicle: Klucel (hydroxypropylcellulose) (HPC)
[7] = dose: 100.0 mg/kg/injection, schedule: Q04DX002 (ip), vehicle: saline
[8] = dose: 200.0 mg/kg/injection, schedule: Q04DX002 (ip), vehicle: saline
[9] = dose: 400.0 mg/kg/injection, schedule: Q04DX002 (ip), vehicle: saline
[10] = dose: 100.0 mg/kg/injection, schedule: Q01DX001 (ip), vehicle: Klucel (hydroxypropylcellulose) (HPC)
[11] = dose: 200.0 mg/kg/injection, schedule: Q01DX001 (ip), vehicle: Klucel (hydroxypropylcellulose) (HPC)
[12] = dose: 400.0 mg/kg/injection, schedule: Q01DX001 (ip), vehicle: Klucel (hydroxypropylcellulose) (HPC)
[13] = dose: 50.0 mg/kg/injection, schedule: Q01DX009 (ip), vehicle: Klucel (hydroxypropylcellulose) (HPC)
[14] = dose: 100.0 mg/kg/injection, schedule: Q01DX001 (ip), vehicle: saline
[15] = dose: 200.0 mg/kg/injection, schedule: Q01DX001 (ip), vehicle: saline
[16] = dose: 400.0 mg/kg/injection, schedule: Q01DX001 (ip), vehicle: saline
[17] = dose: 100.0 mg/kg/injection, schedule: Q04DX003 (ip), vehicle: Klucel (hydroxypropylcellulose) (HPC)
[18] = dose: 200.0 mg/kg/injection, schedule: Q04DX003 (ip), vehicle: Klucel (hydroxypropylcellulose) (HPC)

Measured: T/C

CCOC(=O)c1ccc(NC(=O)Oc2cc(C)ccc2C(C)C)cc1
inactive: [1] 94 % of control | [2] 94 % of control | [3] 94 % of control

Cc1ccc(C(=O)/C=C/c2ccco2)c(C)c1
inactive: [4] 99 % of control | [5] 86 % of control | [6] 99 % of control

CC(=O)OCCSC#N
inactive: dose: 12.5 mg/kg/injection, schedule: Q04DX003 (ip), vehicle: saline with Tween-80 98 % of control | dose: 25.0 mg/kg/injection, schedule: Q04DX003 (ip), vehicle: saline with Tween-80 97 % of control

O=C(Nc1ccc(CC2=NCCCN2)cc1)c1ccc(C(=O)Nc2ccc(CC3=NCCCN3)cc2)cc1
inactive: dose: 0.5 mg/kg/injection, schedule: Q01DX Z (ip), vehicle: water 95 % of control | dose: 1.0 mg/kg/injection, schedule: Q01DX Z (ip), vehicle: water 103 % of control

Nc1ccc(F)c(Cl)c1
inactive: [7] 121 % of control | [8] 98 % of control | [9] 105 % of control

CC1=CC2C(C(C)C)CC1C1C(=O)OC(=O)C21 (stereo not drawn)
inactive: [4] 102 % of control | [5] 100 % of control

N#C/C(=C\C1CCCCC1Cl)C1CCC([N+](=O)[O-])CC1 (stereo not drawn)
inactive: dose: 50.0 mg/kg/injection, schedule: Q04DX002 (ip), vehicle: saline with Tween-80 91 % of control | dose: 100.0 mg/kg/injection, schedule: Q04DX002 (ip), vehicle: saline with Tween-80 91 % of control | dose: 200.0 mg/kg/injection, schedule: Q04DX002 (ip), vehicle: saline with Tween-80 97 % of control

CC1CC[N-]CC1.CC1CC[N-]CC1.CC1CC[N-]CC1.CC1CC[N-]CC1.O=C([O-])C(=O)[O-].O=C([O-])C(=O)[O-].[Nb+5].[O-][O-].[O-][O-].[Pt+4]
inactive: dose: 0.25 mg/kg/injection, schedule: Q01DX009 (ip), vehicle: saline 96 % of control | dose: 0.39 mg/kg/injection, schedule: Q04DX003 (ip), vehicle: saline 110 % of control | dose: 0.5 mg/kg/injection, schedule: Q01DX009 (ip), vehicle: saline 93 % of control | dose: 0.78 mg/kg/injection, schedule: Q04DX003 (ip), vehicle: saline 110 % of control | dose: 1.0 mg/kg/injection, schedule: Q01DX009 (ip), vehicle: saline 98 % of control | dose: 1.56 mg/kg/injection, schedule: Q04DX003 (ip), vehicle: saline 101 % of control | dose: 2.0 mg/kg/injection, schedule: Q01DX009 (ip), vehicle: saline 102 % of control | dose: 3.12 mg/kg/injection, schedule: Q04DX003 (ip), vehicle: saline 96 % of control and 111 % of control

Nc1nc(N)c(CCCOc2ccc(NC(=O)c3cc(S(=O)(=O)F)ccc3Cl)cc2)c(N)n1
inactive: [10] 99 % of control | [11] 99 % of control | [12] 105 % of control

COC1OC(COC(c2ccccc2)(c2ccccc2)c2ccccc2)C(O)C(O)C1O (stereo not drawn)
inactive: [13] 89 % of control | [1] 93 % of control | [2] 89 % of control

Oc1cccc(-c2cc3c(O)ccc(O)c3[nH]2)c1
inactive: [4] 86 % of control | [5] 99 % of control | [6] 91 % of control

CCC(C)Nc1ccc([N+](=O)[O-])cc1 (stereo not drawn)
inactive: dose: 75.0 mg/kg/injection, schedule: Q01DX009 (ip), vehicle: other 95 % of control | dose: 150.0 mg/kg/injection, schedule: Q01DX009 (ip), vehicle: other 102 % of control | dose: 300.0 mg/kg/injection, schedule: Q01DX009 (ip), vehicle: other 113 % of control

CC1CC(C)(C)N=C(CCC2CCCC23OCCO3)O1 (stereo not drawn)
inactive: dose: 100.0 mg/kg/injection, schedule: Q01DX009 (ip), vehicle: saline sonified 98 % of control | dose: 100.0 mg/kg/injection, schedule: Q04DX003 (ip), vehicle: saline sonified 101 % of control | dose: 200.0 mg/kg/injection, schedule: Q01DX009 (ip), vehicle: saline sonified 98 % of control | dose: 200.0 mg/kg/injection, schedule: Q04DX003 (ip), vehicle: saline sonified 101 % of control | dose: 400.0 mg/kg/injection, schedule: Q01DX009 (ip), vehicle: saline sonified 94 % of control | dose: 400.0 mg/kg/injection, schedule: Q04DX003 (ip), vehicle: saline sonified 101 % of control

COc1ccc(CCN2C(=O)c3cccc4c([N+](=O)[O-])ccc(c34)C2=O)cc1OC
inactive: [1] 100 % of control | [2] 94 % of control | [3] 93 % of control

O=C1C=C(N2CC2)C(=O)C(N2CC2)=C1N1CC1
inactive: dose: 0.07 mg/kg/injection, schedule: Q01DX001 (ip), vehicle: saline 112 % of control | dose: 0.1 mg/kg/injection, schedule: Q01DX Z (ip), vehicle: saline 93 % of control | dose: 0.6 mg/kg/injection, schedule: Q01DX001 (ip), vehicle: saline 87 % of control | dose: 6.3 micrograms/kg/injection, schedule: Q01DX015 (ip), vehicle: saline 107 % of control | dose: 12.5 micrograms/kg/injection, schedule: Q01DX015 (ip), vehicle: saline 102 % of control | dose: 25.0 micrograms/kg/injection, schedule: Q01DX015 (ip), vehicle: saline 113 % of control | dose: 75.0 micrograms/kg/injection, schedule: Q01DX009 (ip), vehicle: saline 113 % of control
active: dose: 0.3 mg/kg/injection, schedule: Q01DX001 (ip), vehicle: saline 155 % of control

[O-][N+](=C\c1ccccc1)/[N+]([O-])=C\c1ccccc1
inactive: [14] 98 % of control | [15] 95 % of control | [16] 98 % of control

CCOC(=O)CC(C(=O)OCC)c1nc2ccccc2[nH]c1=O (stereo not drawn)
inactive: [13] 93 % of control and 113 % of control | [1] 101 % of control and 90 % of control | [2] 93 % of control and 103 % of control

Cc1ccc(C(=O)OCC2OC3OC(C)(C)OC3C2OC(=O)c2ccc(C)cc2)cc1 (stereo not drawn)
inactive: dose: 100.0 mg/kg/injection, schedule: Q01DX001 (ip), vehicle: carboxymethylcellulose (CMC) 90 % of control | dose: 200.0 mg/kg/injection, schedule: Q01DX001 (ip), vehicle: carboxymethylcellulose (CMC) 104 % of control | dose: 400.0 mg/kg/injection, schedule: Q01DX001 (ip), vehicle: carboxymethylcellulose (CMC) 101 % of control

CCCCCCCCN1C(=O)C2C(C1=O)C1(Cl)C(Cl)=C(Cl)C2(Cl)C1(Cl)Cl (stereo not drawn)
inactive: dose: 100.0 mg/kg/injection, schedule: Q01DX009 (ip), vehicle: saline 95 % of control | dose: 200.0 mg/kg/injection, schedule: Q01DX009 (ip), vehicle: saline 97 % of control | dose: 400.0 mg/kg/injection, schedule: Q01DX009 (ip), vehicle: saline 93 % of control

CCOC(=O)c1cnc(SC)nc1C(=O)OCC
inactive: dose: 50.0 mg/kg/injection, schedule: Q04DX003 (ip), vehicle: Klucel (hydroxypropylcellulose) (HPC) 102 % of control | [17] 94 % of control | [18] 102 % of control

CC(C)=CC(=O)O
inactive: dose: 100.0 mg/kg/injection, schedule: Q01DX009 (ip), vehicle: saline with Tween-80 95 % of control | dose: 200.0 mg/kg/injection, schedule: Q01DX009 (ip), vehicle: saline with Tween-80 98 % of control | dose: 400.0 mg/kg/injection, schedule: Q01DX009 (ip), vehicle: saline with Tween-80 104 % of control

Cc1ccc(Cl)nn1
inactive: [14] 108 % of control | [15] 109 % of control

Cc1cc(NS(=O)(=O)c2ccc(N=Nc3c(N)[nH]c(=O)[nH]c3=O)cc2)nc(C)n1
inactive: [14] 115 % of control | [15] 96 % of control | [16] 93 % of control

CC(=O)OCCN1CCCCC1
inactive: [7] 94 % of control | [8] 94 % of control | [9] 97 % of control

CN(c1ccccc1)S(=O)(=O)c1ccc(N)cc1
inactive: [10] 96 % of control | [11] 104 % of control | [12] 102 % of control

O=C(OCC#CC#CCOC(=O)c1ccccc1)c1ccccc1
inactive: [1] 102 % of control | [17] 94 % of control | [2] 95 % of control | [18] 96 % of control | [3] 104 % of control | dose: 400.0 mg/kg/injection, schedule: Q04DX003 (ip), vehicle: Klucel (hydroxypropylcellulose) (HPC) 89 % of control

CCOCCOC(=O)c1ccc(C(N)=NC)cc1
inactive: [14] 91 % of control | [15] 94 % of control | [16] 94 % of control
